The record followed here is patent EP0469548B1, “4-Amino-delta4-steroids and their use as 5alpha-reductase inhibitors” (MERRELL PHARMACEUTICALS INC., priority 1990, dated 1992).

The target of the test is T1, steroid 5α-reductase enzyme (Homo sapiens, UniProt P31213).
T1 construct: Microsomal preparations of the steroid 5α-reductase enzyme (protein) were obtained from human prostate tissue; from tissue; host or cells: human prostate tissue (microsomal preparation)
T1 sequence (P31213 1-254): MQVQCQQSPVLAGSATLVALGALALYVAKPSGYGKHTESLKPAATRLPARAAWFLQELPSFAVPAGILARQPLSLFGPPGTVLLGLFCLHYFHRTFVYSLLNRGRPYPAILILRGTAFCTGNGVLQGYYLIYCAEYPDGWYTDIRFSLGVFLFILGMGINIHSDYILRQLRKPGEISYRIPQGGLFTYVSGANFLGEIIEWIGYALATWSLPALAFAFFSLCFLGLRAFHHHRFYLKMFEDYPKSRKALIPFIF
The test can be described thus: 5α-reductase inhibition in microsomal preparations (conversion of testosterone to dihydrotestosterone, HPLC). The class given is biochemical. As for the experimental part: Microsomal preparations of the steroid 5α-reductase enzyme (protein) were obtained from human prostate tissue and stored in aliquots. Protein concentration was determined prior to use of the samples. In the method itself, individual assays for 5α-reductase activity contained 0.1M phosphate citrate buffer, pH 5.6, 1mM EDTA, 7 to 22 µg of microsomal protein, 1mM NADPH, 5 mM glucose-6-phosphate, 1 IU/ml glucose-6-phosphate dehydrogenase, 1,2-³H-testosterone, and test compound, dissolved in dimethyl sulfoxide and then diluted in phosphate-citrate buffer to yield a final assay concentration of 0.1% (v/v) dimethyl sulfoxide. The same buffer and the same quantity of dimethyl sulfoxide, without any test compound was used for the control assays. The total assay volume was 100 µl and assays were performed in duplicate. The reaction was initiated by the addition of the testosterone, and incubated for 30 minutes at 25°C. The assay is linear with time to 30 minutes.
Depending on the nature of the inhibition, testosterone concentration was typically varied from 0.15 µM (approximately 0.5 Km) to 10 Km with radioactive label constant at 0.15 µCi per assay. The amount of test compound added was varied to provide final concentrations of 1 nM to 100 µM. The reaction was quenched by the addition of 50 volumes of chloroform:methanol (2:1). The steroids were then extracted and separated by high pressure liquid chromatography and the amounts of testosterone and dihydrotestosterone present were measured to determine the percent conversion of testosterone to dihydrotestosterone and to calculate the 5α-reductase activity. The activity of the test compound was then expressed as the IC₅₀, or the concentration of test compound that produced a 50% inhibition of the testosterone conversion. When compounds of the present invention were tested in this way, the following results were observed: […]

A word on the IC50: it is the midpoint of a concentration-inhibition curve. In the case of `CC(C)N(C(=O)[C@H]1CC[C@H]2[C@@H]3CCC4=C(N)C(=O)CC[C@]4(C)[C@H]3CC[C@]12C)C(C)C` [4-Amino-N,N-bis(1-methylethyl)-3-oxoandrost-4-ene-17β-carboxamide], the IC50 stood at 104 nM.

Compound `CC(=O)[C@H]1CC[C@H]2[C@@H]3CCC4=C(N)C(=O)CC[C@]4(C)[C@H]3CC[C@]12C` [4-Aminopregn-4-ene-3,20-dione] displayed an IC50 of 50 nM.

Compound `C[C@H](CO)[C@H]1CC[C@H]2[C@@H]3CCC4=C(N)C(=O)CC[C@]4(C)[C@H]3CC[C@]12C` [(20S)-4-Amino-21-hydroxy-20-methylpregn-4-en-3-one] had an IC50 of 54 nM.

Consider `CC(C)(C)NC(=O)[C@H]1CC[C@H]2[C@@H]3CCC4=C(N)C(=O)CC[C@]4(C)[C@H]3CC[C@]12C` [4-Amino-N-(1,1-dimethylethyl)-3-oxoandrost-4-ene-17β-carboxamide], for which half-maximal inhibition (IC50) was put at 59 nM.
